Where “and” joins values, the source holds several entries; their conditions need not be identical. Equal values may be shown once. Read-outs that look alike come from different tables or passages of the source. Where no end group is shown, it is not given here.
Assays:
PfCRT = test: Potential co-substrates tested for influx of VF-6 via PfCRT into the oocyte; type: cell-based, Plasmodium falciparum; set-up: key: X: Compounds that have been tested as potential co-substrates but are not required for influx of VF-6 via PfCRT into the oocyte
PfCRT^Dd2 = PfCRT^Dd2 (Plasmodium falciparum, UniProt Q9N623, A220S/I356T/K76T/M74I/N326S/N75E/Q271E/R371I); test: cell-based; conditions: trans-inhibition, treatment 45 mM
Procedure: (§1) The characterisation of [^3H]VF-6 transport via 23 different field and laboratory-derived isoforms of PfCRT was undertaken with oocytes two days post-cRNA-injection (Figs. 3a–j, 4; Supplementary Fig. 2). The oocytes were injected with 25 nL of ND96 buffer (pH 5.5) supplemented with [^3H]VF-6 and unlabelled VF-6 to achieve estimated intracellular concentrations of 1.4 and 200 μM, respectively. Ten oocytes that had resealed at the injection site were transferred to a 5 mL polystyrene round bottom tube (In Vitro Technologies) and washed with 3.5 mL of ND96 buffer before being transferred to separate wells of a white 96-well plate (PerkinElmer). This treatment served to establish the amount of radioactivity within the oocytes immediately prior to the commencement of the transport assay. Another 10 resealed oocytes were transferred to a 5 mL tube and washed with 3.5 mL of ND96 buffer. […] The assay was terminated by removing the reaction buffer with a pipette and washing the oocytes twice with 3.5 mL of ice-cold ND96 buffer. Each oocyte was transferred to a separate well of a white 96-well plate. The oocytes were lysed by the addition of 20 μL of 10% (w/v) SDS and overnight incubation at room temperature. The lysed oocyte was then combined with 150 μL of MicroScint-40 microscintillant (PerkinElmer), the plate covered with a TopSeal-A (PerkinElmer), and the radioactivity measured with a MicroBeta^2 microplate liquid scintillation analyser (PerkinElmer). VF-6 transport was calculated by subtracting the amount of radioactivity (measured in counts per minute) present within the oocytes at the end of the incubation from that measured in the oocytes sampled immediately before the commencement of the assay. The pH-dependence of transport (Fig. 3c) was determined by injecting the oocytes with [^3H]VF-6 suspended in 25 nL ND96 buffer adjusted to pH 5.0, 5.5, 6.0 or 7.0, which corresponded to the injection of 2.5–250 fmol of H^+. The dependence of [^3H]VF-6 transport on Na^+ or Cl^− was examined by injecting the oocytes with [^3H]VF-6 suspended in the control ND96 buffer (pH 5.5) or a version of this buffer that lacked either Na^+ or Cl^− (Supplementary Fig. 2). […] The dependence of peptide transport on Ca^2+ was determined by injecting the oocytes with [^3H]VF-6 suspended in ND96 buffers that contained different concentrations of Ca^2+ (0–5 mM; Supplementary Fig. 2). […] The dependence of PfCRT-mediated transport on the membrane potential was examined by using (1) Na^+ ionophore III in conjunction with the Na^+ gradients listed in Supplementary Data 7 and (2) Cl^− ionophore III in conjunction with the Cl^− gradients listed in Supplementary Data 7 to clamp the membrane potential of the oocyte from −80 to +80 mV. […] The kinetic parameters for VF-6 transport via different isoforms of PfCRT (Figs. 3e and 4a) were determined in SigmaPlot Windows Version 11.0 by a least-squares fit of the Michaelis–Menten equation to the data.
(§2) A subset of assays measured the ability of solutes known to interact with PfCRT to either cis-inhibit, trans-inhibit or trans-stimulate [^3H]VF-6 transport. These experiments involved adding these solutes to either the cis- or trans-side of the membrane relative to [^3H]VF-6. […] At least five independent experiments were performed (on different days and using oocytes from different frogs), and within each experiment measurements were made from ten oocytes per treatment.

PfCRT^3D7 = PfCRT^3D7 (Plasmodium falciparum, UniProt Q8IBZ9); test: cell-based
Procedure: as §1, §2

PfCRT^Ecu1110 = PfCRT^Ecu1110 (Plasmodium falciparum, UniProt Q9N623, A220S/I356L/K76T/N326D); test: cell-based; conditions: trans-inhibition, treatment 45 mM
Procedure: as §1, §2

[1] = trans-inhibition, treatment 45 mM, Experiment 1
[2] = trans-inhibition, treatment 45 mM, Experiment 2
[3] = trans-inhibition, treatment 45 mM, Experiment 3
[4] = trans-inhibition, treatment 45 mM, Experiment 4
[5] = trans-inhibition, treatment 45 mM, Experiment 5

Chain of PfCRT^Dd2 (Q9N623 whole entry A220S/I356T/K76T/M74I/N326S/N75E/Q271E/R371I, canonical isoform): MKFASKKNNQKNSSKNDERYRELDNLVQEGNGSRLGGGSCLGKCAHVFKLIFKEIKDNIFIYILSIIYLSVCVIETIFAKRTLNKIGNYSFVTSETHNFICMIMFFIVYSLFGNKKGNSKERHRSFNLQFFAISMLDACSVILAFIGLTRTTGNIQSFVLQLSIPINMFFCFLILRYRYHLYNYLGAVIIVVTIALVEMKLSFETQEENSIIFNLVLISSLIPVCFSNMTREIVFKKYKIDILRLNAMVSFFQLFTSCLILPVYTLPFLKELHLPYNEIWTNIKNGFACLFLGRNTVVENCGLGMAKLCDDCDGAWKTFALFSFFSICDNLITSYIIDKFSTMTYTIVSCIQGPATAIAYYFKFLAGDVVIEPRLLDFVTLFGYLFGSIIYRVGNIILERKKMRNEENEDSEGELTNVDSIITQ
Chain of PfCRT^Ecu1110 (Q9N623 whole entry A220S/I356L/K76T/N326D): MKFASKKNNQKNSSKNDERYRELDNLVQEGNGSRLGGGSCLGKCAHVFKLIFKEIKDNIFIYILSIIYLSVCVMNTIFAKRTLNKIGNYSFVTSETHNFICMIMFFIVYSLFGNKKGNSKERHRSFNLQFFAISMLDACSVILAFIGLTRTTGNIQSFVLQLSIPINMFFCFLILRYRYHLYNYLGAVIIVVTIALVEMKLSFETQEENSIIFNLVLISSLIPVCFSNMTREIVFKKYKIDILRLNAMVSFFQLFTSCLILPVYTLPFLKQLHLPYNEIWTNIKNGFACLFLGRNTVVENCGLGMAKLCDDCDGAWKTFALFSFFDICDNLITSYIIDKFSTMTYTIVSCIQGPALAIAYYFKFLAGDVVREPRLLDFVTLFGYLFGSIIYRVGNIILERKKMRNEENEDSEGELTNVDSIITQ
Chain of PfCRT^3D7 (Q8IBZ9 59-398): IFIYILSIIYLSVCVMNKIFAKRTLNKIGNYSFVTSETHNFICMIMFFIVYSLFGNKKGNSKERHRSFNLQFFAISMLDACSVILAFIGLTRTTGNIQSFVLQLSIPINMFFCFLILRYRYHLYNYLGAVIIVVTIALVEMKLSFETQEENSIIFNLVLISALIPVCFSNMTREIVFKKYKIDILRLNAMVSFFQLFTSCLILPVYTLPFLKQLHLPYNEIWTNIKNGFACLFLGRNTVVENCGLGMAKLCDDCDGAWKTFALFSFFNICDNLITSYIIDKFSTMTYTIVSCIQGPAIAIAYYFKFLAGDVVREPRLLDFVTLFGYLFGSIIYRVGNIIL

Compound | Tested as potential co-substrate but not required for influx of VF-6 via PfCRT into the oocyte (PfCRT) | [3H]VF-6 transport, PfCRTDd2 (% PfCRT3D7 control) (PfCRT^Dd2; Experiment 1) | [3H]VF-6 transport, PfCRTDd2 (% PfCRT3D7 control) (PfCRT^Dd2; Experiment 2) | [3H]VF-6 transport, PfCRTDd2 (% PfCRT3D7 control) (PfCRT^Dd2; Experiment 3) | [3H]VF-6 transport, PfCRTDd2 (% PfCRT3D7 control) (PfCRT^Dd2; Experiment 4) | [3H]VF-6 transport, PfCRTDd2 (% PfCRT3D7 control) (PfCRT^Dd2; Experiment 5) | [3H]VF-6 transport, PfCRTEcu1110 (% PfCRT3D7 control) (PfCRT^Ecu1110; Experiment 1) | [3H]VF-6 transport, PfCRTEcu1110 (% PfCRT3D7 control) (PfCRT^Ecu1110; Experiment 2) | [3H]VF-6 transport, PfCRTEcu1110 (% PfCRT3D7 control) (PfCRT^Ecu1110; Experiment 3) | [3H]VF-6 transport, PfCRTEcu1110 (% PfCRT3D7 control) (PfCRT^Ecu1110; Experiment 4) | [3H]VF-6 transport, PfCRTEcu1110 (% PfCRT3D7 control) (PfCRT^Ecu1110; Experiment 5) | other results
N[C@@H](CO)C(=O)O [L-serine] | X | – | – | – | – | – | – | – | – | – | – | –
C[C@@H](O)[C@H](N)C(=O)O [L-threonine] | X | – | – | – | – | – | – | – | – | – | – | –
N[C@@H](Cc1c[nH]c2ccccc12)C(=O)O [L-tryptophan] | X | – | – | – | – | – | – | – | – | – | – | –
N[C@@H](Cc1ccc(O)cc1)C(=O)O [L-tyrosine] | X | – | – | – | – | – | – | – | – | – | – | –
CC(C)[C@H](N)C(=O)O [L-valine] | X | – | – | – | – | – | – | – | – | – | – | –
DPVN [VF-6-derived peptide] | – | 7.83 % PfCRT3D7 control | 7.93 % PfCRT3D7 control | 7.34 % PfCRT3D7 control | 7.75 % PfCRT3D7 control | 8.53 % PfCRT3D7 control | 9.56 % PfCRT3D7 control | 9.46 % PfCRT3D7 control | 8.39 % PfCRT3D7 control | 9.45 % PfCRT3D7 control | 9.93 % PfCRT3D7 control | [3H]VF-6 transport, PfCRT3D7 (% PfCRT3D7 control) (PfCRT^3D7): 26.43 % PfCRT3D7 control and 27.43 % PfCRT3D7 control and 23.23 % PfCRT3D7 control and 20.32 % PfCRT3D7 control and 20.85 % PfCRT3D7 control
DPVNF [VF-6-derived peptide] | – | 9.35 % PfCRT3D7 control | 8.35 % PfCRT3D7 control | 9.55 % PfCRT3D7 control | 8.26 % PfCRT3D7 control | 9.66 % PfCRT3D7 control | 7.36 % PfCRT3D7 control | 8.38 % PfCRT3D7 control | 7.23 % PfCRT3D7 control | 8.43 % PfCRT3D7 control | 7.77 % PfCRT3D7 control | [3H]VF-6 transport, PfCRT3D7 (% PfCRT3D7 control) (PfCRT^3D7; [1]): 21.64 % PfCRT3D7 control; [3H]VF-6 transport, PfCRT3D7 (% PfCRT3D7 control) (PfCRT^3D7; [2]): 22.13 % PfCRT3D7 control; [3H]VF-6 transport, PfCRT3D7 (% PfCRT3D7 control) (PfCRT^3D7; [3]): 19.38 % PfCRT3D7 control; [3H]VF-6 transport, PfCRT3D7 (% PfCRT3D7 control) (PfCRT^3D7; [4]): 18.32 % PfCRT3D7 control; [3H]VF-6 transport, PfCRT3D7 (% PfCRT3D7 control) (PfCRT^3D7; [5]): 19.24 % PfCRT3D7 control
PVNF [PF-4] | X | – | – | – | – | – | – | – | – | – | – | –
PVNF [VF-6-derived peptide] | – | 8.23 % PfCRT3D7 control | 8.92 % PfCRT3D7 control | 7.3 % PfCRT3D7 control | 7.53 % PfCRT3D7 control | 7.44 % PfCRT3D7 control | 10.55 % PfCRT3D7 control | 12.46 % PfCRT3D7 control | 11.35 % PfCRT3D7 control | 10.58 % PfCRT3D7 control | 10.07 % PfCRT3D7 control | [3H]VF-6 transport, PfCRT3D7 (% PfCRT3D7 control) (PfCRT^3D7): 25.32 % PfCRT3D7 control and 24.64 % PfCRT3D7 control and 25.23 % PfCRT3D7 control and 25.9 % PfCRT3D7 control and 23.94 % PfCRT3D7 control
VDPVN [VF-6-derived peptide] | – | 7.28 % PfCRT3D7 control | 7.49 % PfCRT3D7 control | 7.54 % PfCRT3D7 control | 7.59 % PfCRT3D7 control | 7.33 % PfCRT3D7 control | 6.34 % PfCRT3D7 control | 5.74 % PfCRT3D7 control | 6.34 % PfCRT3D7 control | 6.94 % PfCRT3D7 control | 6.25 % PfCRT3D7 control | [3H]VF-6 transport, PfCRT3D7 (% PfCRT3D7 control) (PfCRT^3D7; [1]): 20.24 % PfCRT3D7 control; [3H]VF-6 transport, PfCRT3D7 (% PfCRT3D7 control) (PfCRT^3D7; [2]): 19.6 % PfCRT3D7 control; [3H]VF-6 transport, PfCRT3D7 (% PfCRT3D7 control) (PfCRT^3D7; [3]): 22.64 % PfCRT3D7 control; [3H]VF-6 transport, PfCRT3D7 (% PfCRT3D7 control) (PfCRT^3D7; [4]): 22.05 % PfCRT3D7 control; [3H]VF-6 transport, PfCRT3D7 (% PfCRT3D7 control) (PfCRT^3D7; [5]): 19.48 % PfCRT3D7 control
VDPVNF [VF-6] | – | – | – | – | – | – | – | – | – | – | – | [3H]VF-6 transport, PfCRT3D7 (% PfCRT3D7 control) (PfCRT^3D7; [1]): 17.84 % PfCRT3D7 control; [3H]VF-6 transport, PfCRT3D7 (% PfCRT3D7 control) (PfCRT^3D7; [2]): 18.04 % PfCRT3D7 control; [3H]VF-6 transport, PfCRT3D7 (% PfCRT3D7 control) (PfCRT^3D7; [3]): 20.27 % PfCRT3D7 control; [3H]VF-6 transport, PfCRT3D7 (% PfCRT3D7 control) (PfCRT^3D7; [4]): 18.57 % PfCRT3D7 control; [3H]VF-6 transport, PfCRT3D7 (% PfCRT3D7 control) (PfCRT^3D7; [5]): 17.74 % PfCRT3D7 control
